Source: ChEMBL document CHEMBL3507680, “University of Dundee, Gates Library screen for HepG2 cell viability”

assay: Human HepG2 cell viability assay in 384 well format; assay type: toxicity, cell-based; design: dose 125 nL, time 70.5 hour; cytotoxicity at 70.5 h: concentration not given beside the values; conditions: HepG2 cells, read-out: Inhibition

SMILES | cytotoxicity at 70.5 h [%]
CN(Cc1cn2c(n1)CN(C1CCOC1)CC2)Cc1ccco1 (centres undefined) | -8.22
Cc1cc(CNC(=O)CN2CCCC(Cn3cncn3)C2)ccc1F (centres undefined) | 3.75
Cc1cnc(C(=O)N2CCOCC2C)cn1 (centres undefined) | -16.2
CCc1nc(NCC(=O)N2CCOCC2)c2c(n1)c(C)nn2CC | -9.61
Cn1c(=O)c2cc(C(=O)NCCc3ccccc3)ccc2n(C)c1=O | -1.15
CC(Cc1ccco1)NC(=O)Nc1cccnc1 (centres undefined) | 2.87
c1csc(N2CCN(Cc3nnnn3C3CC3)CC2)n1 | 0.58
CC(=O)N[C@@H]1C[C@H](c2ccc(OCCO)cc2)OC2(CCOCC2)C1 | 7.41
O=C1CCC2(CCCN(C(=O)c3cccnc3)CC2)N1 (centres undefined) | -3.4
CCCOc1ccc(Cl)cc1NC(=O)NCCC(=O)N(C)C | 4.12
Cc1nnn2c1COCC(CNC(=O)c1ccc3[nH]ccc3c1)C2 (centres undefined) | -9.06
Cc1cc(C)n(Cc2ccc(-c3noc(C(=O)NC[C@@H](C)O)n3)cc2)n1 | -14.8
Cc1ccc(CN2CCOCS2(=O)=O)cc1F | -9.79
O=c1[nH]cc(N2CCCCC2)c(=O)[nH]1 | -3.72
CCC(=O)Nc1ccc(C(C)NC(=O)COC)cc1 (centres undefined) | -9.08
Cc1noc(C)c1C(=O)N1CCCC1(C)C(=O)NC1CCCC1 (centres undefined) | -10.2
CN(C1CCCCC1)S(=O)(=O)N1CCN(Cc2ccco2)CC1 | -7.86
CCOCC1CN(C(=O)C2=CCCC2)Cc2cnn(CC)c21 (centres undefined) | -16.7
O=C(C1CC=CC1)N1C[C@@H](OCc2cccnc2)[C@H]2OCCC[C@H]21 | 11.2
CC(C)Cc1cc(NC(=O)c2n[nH]c3ccccc23)n(C)n1 | -5.98
CSCCCN1CCc2nc(N(C)C)nc(N3CCC(O)CC3)c2C1 | -6.06
COc1cc(CNCc2ccc(C(C)O)cc2)cc2c1OCO2 (centres undefined) | 44.3
COc1ccc(-c2nnc(SCC(=O)NCC(C)C)[nH]2)c(OC)c1 | -7.35

SMILES | cytotoxicity at 70.5 h [%]
Cc1nc(C)c(C(=O)N2CCC(Nc3cccnc3)CC2)s1 | -8.38
CCN(CC1CCOC1)C(=O)Nc1ccc(OC)nc1 (centres undefined) | 24.3
CCN1CCN(C(=O)C2CCCc3[nH]ncc32)CC1 (centres undefined) | 1.54
O=C(Cn1cnnn1)NC(c1ccccc1)c1ccc2c(c1)CCCO2 (centres undefined) | 24.4
COc1ccc(OCc2nc(C(=O)N3CCCNC(=O)C3)co2)cc1 | -2.16
Cc1cc(C)n(CC2CN(CC(=O)Nc3nncs3)CCO2)n1 (centres undefined) | 0.137
Cc1cccc2nc(CN3CCCC(C)C3)cc(=O)n12 (centres undefined) | 13.9
c1cncc(C2COC3(CCN(Cc4cccs4)CC3)C2)c1 (centres undefined) | -6.54
Cc1ccc(N2CCCc3sc(C(=O)NCC4CCCO4)nc32)nn1 (centres undefined) | -8.45
Cc1ccc(CC(=O)N2CCc3nnc(N(C)C)cc3C2)cn1 | -3.16
O=S(=O)(c1cccs1)N1CC[C@H](O)[C@@H]1Cc1ccncc1 | -1.15
Cc1ccc(S(=O)(=O)NC2CCC(=O)NC2)cc1Br (centres undefined) | -4.2
COc1ccc(C(=O)N2CCN3C(=O)CNC(=O)[C@@H]3C2)cc1 | 12.5
CC(O)c1cn(Cc2cccc(C(F)(F)F)c2)nn1 (centres undefined) | -4.44
O=C1NCCCCC1NC(=O)C1(c2cccc(C(F)(F)F)c2)CC1 (centres undefined) | 0.452
CCOCCCn1c(NC(=O)c2ccc(C)nc2)nc2ccccc21 | -5.03
CS(=O)(=O)N1CCC(C(=O)NCCCn2cc(Cl)cn2)CC1 | -13.1
Cc1cc(C)n(CCN2CCN(C(=O)c3cc4ccccc4o3)CC2)n1 | -0.14
CN(Cc1cnc(N)nc1)C(=O)C1CC(=O)N(Cc2ccncc2)C1 (centres undefined) | -10.8
CCC(C)CN1CCC(n2cc(C3CCCC3)nn2)CC1 (centres undefined) | 0.72
COCC1c2c(cnn2CC2CC2)CCN1Cc1cc(C)on1 (centres undefined) | -12.7
Cc1ccc2c(c1)nc1n2[C@@H](CNC(=O)c2ccccn2)COC1 | 11.4
N[C@H]1CC[C@@H](n2cc(C(=O)NC3CCc4ccccc4C3)nn2)CC1 (some centres undefined) | -11.5

SMILES | cytotoxicity at 70.5 h [%]
CCN(CC)CCSc1nnc(N2CCN(c3ccc(F)cc3)CC2)s1 | -5.54
CC(C)NC1CCc2c(ccc(=O)n2CCN2CCCC2=O)C1 (centres undefined) | -4.58
Cn1cc(CN(Cc2ccccn2)Cc2ccccc2Cl)cn1 | -1.3
COCCn1ccc2c(cnc3nc(SC)nn32)c1=O | -4.98
CC(NCC1=Cc2cc(Cl)ccc2OC1)c1nnc2n1CCCC2 (centres undefined) | -3.35
CN(CC1CCN(c2ccccc2)C1)c1ccc(Cn2ccnc2)cn1 (centres undefined) | -13.6
COc1cccc(OCC2CCCN(C(=O)CCCn3cccn3)C2)c1 (centres undefined) | -11
O=C(CN1CCCC1)N1CCCC(CNS(=O)(=O)Cc2ccccc2)C1 (centres undefined) | 22.2
CC(C)c1nnc(NC(=O)Cc2csc(-c3nnc[nH]3)n2)s1 | 22.4
CC(=O)NCCOc1c(Cl)cccc1Cl | 28.8
Cc1cnc(N2C[C@H]3CCN(CC4CC4)C[C@H]3C2)nc1 | 9.39
CCn1ncc2[nH]c(-c3ccc(OC)c(COC)c3)nc21 | -6.61
CC(C)N1CCOC(CC(=O)N2CCCN(Cc3ccncc3)CC2)C1 (centres undefined) | 15.7
CSc1nc(C2CC2)nc(C)c1C(=O)NCc1cc(C)on1 | -0.104
CCN1CCC(c2nnc(CN3CCCC3)n2C2CC2)CC1 | -9.82
Cc1cc(C[C@@H]2COC[C@@H]2NC(=O)CN2CCOC2=O)on1 | -7.96
COC(=O)c1cccc(NC(=O)CCn2nc(-c3cccs3)oc2=O)c1 | 0.767
Cn1ncc2c(N3CCN(C(N)=O)CC3)nc(C3CCCC3)nc21 | 16.3
COc1ccccc1N1CCN(Cc2ncc(C)c(OC)c2C)CC1=O | -6.77
CS(=O)(=O)N1CCC(C(=O)NC(Cc2ccsc2)c2nccs2)CC1 (centres undefined) | -20.6
CC(O)(CNC(=O)c1c(F)cccc1Cl)c1ccco1 (centres undefined) | 29.8
CNC(=O)c1cc(C2CCCN2)n[nH]1 (centres undefined) | -3.32
N#Cc1ccccc1N1CC2(CCCCN2CC2CC2)CC1=O (centres undefined) | 7.89

SMILES | cytotoxicity at 70.5 h [%]
CC(C)n1ccnc1C1CCN(C(=O)c2ccccc2)CC1 | 20.7
CCCN1CCC(CC(=O)NCc2cc(O)ncn2)CC1 | -11.6
CC(=O)N1CCN(C(=O)Cn2ccc3c(Cl)cccc32)CC1 | -16.8
COC[C@]1(O)CCN(Cc2cnc(N3CCOCC3)nc2)CC1(C)C | -14.6
CN1CC(=O)N(c2ccccc2)CC12CCN(C(=O)c1ccnnc1)C2 (centres undefined) | 24.2
O=C(CSCc1ccccn1)N(Cc1ccsc1)C1CC1 | -2.85
COc1ccc(OCCNC(=O)CN(C)Cc2nnc(C)n2C)cc1 | 29.6
CS(=O)(=O)N1CCC(Oc2cnccn2)CC1 | -5.72
CN1C(=O)C2(CC(=O)Nc3c2cnn3C(C)(C)C)c2ccccc21 (centres undefined) | -18.7
O=C(CCCc1nc2ccccc2[nH]1)N1CCCC1c1ccncc1 (centres undefined) | 32.6
CC(C)n1c(C2CCCN(CC(N)=O)C2)nc2ccccc21 (centres undefined) | -1.68
Cc1cccc(CN2CCC3(CCN(c4ncccn4)CC3)C2=O)c1 | 1.2
O=C(NCC(F)F)N1CCC(n2ccc(C(F)(F)F)n2)CC1 | 2.24
Cc1noc(C(C)N2CCN(CCCN3CCCC3=O)CC2)n1 (centres undefined) | -11.4
Cc1cnn(CC2CCCN2Cc2coc(-c3ccccc3)n2)c1 (centres undefined) | 13.5
CN(C)S(=O)(=O)N1CC[C@]2(C[C@@H](OCC3CC3)CO2)C1 | 0.733
CCO[C@H]1C[C@@H](O)C12CCN(C1CCN(c3ccccc3C)CC1)CC2 | 3.61
Cc1ccc(CN2CCCC3(CCN(S(C)(=O)=O)C3)C2)o1 (centres undefined) | -10.2
CNC(=O)CS(=O)(=O)C1CCN(S(=O)(=O)c2cccc(C(C)=O)c2)CC1 | -6.78
CCn1cc(CNC(=O)c2nn(CC)cc2Br)cn1 | 8.71
N#Cc1cccc(CN2C(=O)c3ccccc3CS2(=O)=O)c1 | -2.45
Cc1ccc(S(=O)(=O)N2CCC3(CC(C(=O)NC4CCC4)=NO3)C2)cc1 (centres undefined) | 18.4
CC(=O)N[C@H]1CCO[C@@H](c2cccc(NC(=O)c3ccc(=O)[nH]n3)c2)C1 | 24.6

SMILES | cytotoxicity at 70.5 h [%]
CN(CCCNC(=O)C1CCc2cn[nH]c2C1)c1ccccc1 (centres undefined) | -4.99
CCSc1nc(N)c(NC(=O)c2ccc(C)cc2)c(=O)[nH]1 | 10.5
O=C(CCCc1ccccc1)N1CCC(Nc2cccnn2)CC1 | -4.29
CN(C)c1ncnc2c1CCN(S(=O)(=O)c1cccc(Cl)c1Cl)C2 | -4.66
CCC(=O)Nc1cccc(OCC(=O)N(C)Cc2cc(COC)[nH]n2)c1 | -4.96
Cc1oncc1C(=O)N1CCC2(CCN(Cc3cccc(F)c3)C2=O)C1 (centres undefined) | -2.01
CN1CCN(Cc2ccco2)Cc2cccnc21 | 0
FC(F)(F)c1nc(NC2CCc3ncnn3C2)c2ccccc2n1 (centres undefined) | 24.8
Cc1ccc(CNC2CC3(CCN(CCO)CC3)c3ccccc32)s1 (centres undefined) | 4.93
CCC1CN(C(=O)c2cc(C(C)=O)c(C)[nH]c2=O)CCN1C(C)C (centres undefined) | -9.37
CN1CC[C@H](c2nnc(-c3cncn3C)o2)C1 | -0.523
c1ccc(-c2noc([C@@H]3Cc4nc[nH]c4CN3)n2)cc1 | -14
COCc1noc(-c2ccc(N(C)Cc3ccc(C)o3)nc2)n1 | -2.55
O=C(O)c1csc(S(=O)(=O)N2CCCc3cccc(OC(F)F)c32)c1 | -5.21
CN(CC(=O)N1CCCCC1Cn1cccn1)C1CC1 (centres undefined) | 4.49
CN(C)C(=O)c1n[nH]c2c1CN(CC1CCCCC1)C2 | -2.71
Fc1cccc(N2CCc3ncnc(N4CCOCC4)c3CC2)c1 | -6.22
COc1ccc(C2(NC(=O)C3CC(=O)N(C)C3)CCCC2)cc1 (centres undefined) | 20.4
NC(=O)CCn1ccc(NCc2cc(F)ccc2Br)n1 | -10.5
Nc1cc(CCCNC(=O)NC2CC2)nn1-c1ccccc1 | -2.83
Fc1cccc(-c2c[nH]c(C3CCCN3)n2)c1 (centres undefined) | 0.492
Cc1cc(C(C)(O)CNC(=O)CCn2ccnc2C(C)C)c(C)o1 (centres undefined) | 9.42
